Results taken from US11814681B2 (priority 2017, dated 2023).
Values joined by “and” are separate entries in the source; they are usually repeats but may differ in a detail not shown here. Equal values may be shown once.

Key:
[1] = in vivo; cited from earlier work
[2] = test system: patients (Met allele carriers, Val/Val); settings: in vivo; cited from earlier work
[3] = test system: schizophrenia patients; settings: human, in vivo
[4] = test system: patients (Met allele carriers, Val/Val); parameters: species or system human; settings: in vivo
[5] = human, in vivo
[6] = human, in vivo; remark: listed apart in the source
[7] = human, in vivo; remark: listed apart in the source

SMILES	effect on circulating proline levels [1]	effect on circulating proline [1]	blood level considered the lower end of the therapeutic range [2]	difference in SANS total score, Val/Val versus Val/Met and Met/Met (regression coefficient) [3]	β (95% CI), bivariate association of treatment with total SANS score [3]	patients showing improvement in negative symptoms after treatment onset [4]	fasting plasma proline, mean ± SD [5]	fasting L-serine level [6]	fasting glycine level [6]	fasting plasma proline versus patients who did not receive the drug [7]
CCO [Ethanol]	increases									
CCCC(CCC)C(=O)O [VPA, 2-propylpentanoic acid]		upregulates	50 µg/mL	−12.17	−0.578 (−7.157, 6.001)	2 out of 9 and 5 out of 7	299.29±94.76	117 µM	361 µM	significantly higher
